This is an account of results in ChEMBL document CHEMBL1201862, “PubChem BioAssay data set” (2004).

Molecules are shown by their SMILES. Activity calls are given as the source filed them. Where only a bound is given, the exact number is not on record here.

System in the first test: not listed separately
The experiment in a line: inhibitors of firefly luciferase expression or activity, dose response, H4 neuroglioma cells, luminescence (AID 1990). Format: functional, cell-based.
Consider `Cc1ccc(C(=O)N/N=C/c2cn(Cc3ccccc3)c3ccccc23)cn1`, for which the EC50 (as a rule, the concentration at which the effect is half-maximal) is 7.88 µM (active).

The target of a further test is T1, Cytochrome P450 1A2 (Homo sapiens, UniProt P05177).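 Also: PubChem cytochrome P450 panel assay, CYP1A2 panel member.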
T1 sequence (P05177 whole entry): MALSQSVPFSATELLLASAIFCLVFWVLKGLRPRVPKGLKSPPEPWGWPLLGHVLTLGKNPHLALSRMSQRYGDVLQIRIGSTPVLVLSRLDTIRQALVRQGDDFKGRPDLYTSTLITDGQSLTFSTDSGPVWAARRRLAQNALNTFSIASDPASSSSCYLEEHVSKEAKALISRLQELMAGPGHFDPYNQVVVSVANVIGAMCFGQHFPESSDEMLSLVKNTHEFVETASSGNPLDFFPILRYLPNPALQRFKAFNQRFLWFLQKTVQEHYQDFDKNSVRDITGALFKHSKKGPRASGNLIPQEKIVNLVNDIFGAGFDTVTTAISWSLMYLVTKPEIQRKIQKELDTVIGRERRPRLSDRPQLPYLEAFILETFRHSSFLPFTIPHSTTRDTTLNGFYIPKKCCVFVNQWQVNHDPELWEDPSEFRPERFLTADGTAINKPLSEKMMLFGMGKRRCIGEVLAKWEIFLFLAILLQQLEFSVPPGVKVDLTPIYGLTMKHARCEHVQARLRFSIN
Consider `N[C@H](C(=O)O)[C@H](O)C(=O)O`, for which the AC50 (usually the midpoint of the concentration-response curve, whichever way the signal moves) is 39.8 µM (inconclusive). In the case of `CC1CC(C)CN(C/C=C/c2ccccc2[N+](=O)[O-])C1` (configuration not stated), the AC50 was 14.1 µM (inconclusive). Consider `COc1cccc(Nc2ncc3nc(-c4cccs4)c(=O)n(Cc4cccs4)c3n2)c1`, for which the AC50 is 2 µM (inconclusive). Turning to `COc1c(F)c(F)c(C(=O)O)c(Nc2ccc(C)cc2)c1F`, the half-maximal activity concentration (AC50) is 22.4 µM (inconclusive). The same measure, in the same setting: in the case of `COc1cc2c(C(=O)N3CCN(C)CC3)c(C)n(-c3ccccc3)c2cc1Br` it was 25.1 µM (inconclusive); in that of `CCc1nnc2sc(-c3ccc(NC(=O)c4ccco4)cc3)nn12`, 14.1 µM (inconclusive).

For `C=CCNc1cnn(-c2ccc(C)cc2)c(=O)c1Cl`, the AC50 was 28.2 µM (inconclusive). Same read-out and setting: in the case of `CC(=O)Nc1cccc(NC(=O)C2CCCN2C(=O)Nc2ccccc2C)c1` (configuration not stated) it was 25.1 µM (inconclusive); in that of `O=C(CCC(=O)OCc1ccc(C(=O)Oc2ccccc2)cc1)Nc1cccc2ccccc12`, 8.91 µM (inconclusive).

For `CCc1ccc(OCC(=O)OC2CCS(=O)(=O)C2)cc1` (configuration not stated), the AC50 is 12.6 µM (inconclusive). For `O=C(CSCc1ccccc1Cl)NNC(=O)c1ccccc1`, the AC50 was 15.8 µM (inconclusive).

In the case of `CC(C)(CO)N1CCN(C(S)=Nc2ccccc2)CC1`, the AC50 was 6.31 µM (inconclusive).

On to `CN1CCCC2(CCN(S(=O)(=O)c3ccccc3)CC2)C1`, for which the AC50 was 20 µM (inconclusive). On to `Cc1nnc(C)n1/N=C/c1ccc(-c2ccccc2)cc1`, for which the AC50 was 10 µM (inconclusive).

Turning to `FC(F)(F)c1nc2ccc(SSc3ccc4nc(C(F)(F)F)[nH]c4c3)cc2[nH]1`, the AC50 was 0.501 µM (inconclusive). The same measure, in the same setting: the same measure for `CCCCCCCC(=O)O[C@H](CC(=O)O)C[N+](C)(C)C` [OCTANOYLCARNITINE]: 31.6 µM (inconclusive).

A further test deals with Cytochrome P450 2C9 (Homo sapiens, UniProt P11712).
Chain of Cytochrome P450 2C9 (P11712 whole entry): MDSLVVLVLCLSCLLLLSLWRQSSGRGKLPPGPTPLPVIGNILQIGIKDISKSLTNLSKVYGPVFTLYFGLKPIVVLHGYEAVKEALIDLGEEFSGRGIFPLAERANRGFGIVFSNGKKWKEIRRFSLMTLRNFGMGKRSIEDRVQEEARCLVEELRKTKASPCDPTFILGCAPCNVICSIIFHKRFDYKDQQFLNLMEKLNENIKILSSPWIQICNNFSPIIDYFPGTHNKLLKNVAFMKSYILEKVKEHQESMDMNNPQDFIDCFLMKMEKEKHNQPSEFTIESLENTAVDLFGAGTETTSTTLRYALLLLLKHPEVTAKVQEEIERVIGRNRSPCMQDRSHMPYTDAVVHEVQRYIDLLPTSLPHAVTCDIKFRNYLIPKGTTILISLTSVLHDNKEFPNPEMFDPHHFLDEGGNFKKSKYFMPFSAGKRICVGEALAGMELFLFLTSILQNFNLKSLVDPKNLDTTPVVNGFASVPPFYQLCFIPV
`COc1ccc2c(c1)C(=O)N(Cc1ccco1)C(=O)/C2=C\Nc1c(C)n(C)n(-c2ccccc2)c1=O`: the AC50 was 7.94 µM (inconclusive).

For the compound `CN(C)c1ncc2nc(-c3ccc(F)cc3)c(=O)n(C3CC3)c2n1`, the AC50 is 0.251 µM (inconclusive). `CC1CC(C)CN(C/C=C/c2ccccc2[N+](=O)[O-])C1` (configuration not stated): the AC50 is 1.58 µM (inconclusive). `O=[N+]([O-])c1ccc([C@@H](Nc2ccccc2)c2ccc3cccnc3c2O)cc1`: the AC50 was 6.31 µM (inconclusive). Turning to `COc1ccc(OC)c(NC(=O)c2cc3n(n2)C(C(F)(F)F)CC(c2ccc4c(c2)OCO4)N3)c1` (configuration not stated), the half-maximal activity concentration (AC50) is 0.794 µM (inconclusive). As for `CCCNC(=O)OC[C@@H]1O[C@H](CCO/N=C2\c3cc(OC)ccc3O[C@H](c3cccc(OC)c3)[C@H]2O)C=C[C@@H]1Oc1ccc(OC)cc1`, the AC50 is 6.31 µM (inconclusive).

On to `Cc1nc(SC2CC(=O)N(c3ccc([N+](=O)[O-])cc3)C2=O)nc2c1CCCC2` (configuration not stated), for which the AC50 is 11.2 µM (inconclusive). On the same count and under the same terms, in the case of `COc1cc2c(C(=O)N3CCN(C)CC3)c(C)n(-c3ccccc3)c2cc1Br` it was 22.4 µM (inconclusive); in that of `CC(=O)Nc1cccc(NC(=O)C2CCCN2C(=O)Nc2ccccc2C)c1` (configuration not stated), 20 µM (inconclusive).

For the compound `Cn1c(=O)c(-c2cccs2)nc2cncnc21`, the AC50 was 39.8 µM (inconclusive). On to `CC(=O)c1cccc(NC(=O)CSCc2ccccc2)c1`, for which the AC50 is 7.94 µM (inconclusive).

Regarding `CCNCc1cc(OCC)c(OCC(=O)NCCc2ccccc2)cc1Cl`, the half-maximal activity concentration (AC50) was 20 µM (inconclusive). As to `CCc1sc(-c2c(C#N)c(N)nc3c2CCCCCC3)cc1[N+](=O)[O-]`, the AC50 was 2.82 µM (inconclusive). With `Cc1nnc(C)n1/N=C/c1ccc(-c2ccccc2)cc1`, the AC50 was 12.6 µM (inconclusive). Regarding `COc1ccc(-c2csc3c2[N+]2=CCC=C2C3[O-])cc1` (configuration not stated), the half-maximal activity concentration (AC50) was 6.31 µM (inconclusive). As to `FC(F)(F)c1nc2ccc(SSc3ccc4nc(C(F)(F)F)[nH]c4c3)cc2[nH]1`, the AC50 was 7.94 µM (inconclusive).

Another test deals with Cytochrome P450 3A4 (Homo sapiens, UniProt P08684).
Chain of Cytochrome P450 3A4 (P08684 whole entry): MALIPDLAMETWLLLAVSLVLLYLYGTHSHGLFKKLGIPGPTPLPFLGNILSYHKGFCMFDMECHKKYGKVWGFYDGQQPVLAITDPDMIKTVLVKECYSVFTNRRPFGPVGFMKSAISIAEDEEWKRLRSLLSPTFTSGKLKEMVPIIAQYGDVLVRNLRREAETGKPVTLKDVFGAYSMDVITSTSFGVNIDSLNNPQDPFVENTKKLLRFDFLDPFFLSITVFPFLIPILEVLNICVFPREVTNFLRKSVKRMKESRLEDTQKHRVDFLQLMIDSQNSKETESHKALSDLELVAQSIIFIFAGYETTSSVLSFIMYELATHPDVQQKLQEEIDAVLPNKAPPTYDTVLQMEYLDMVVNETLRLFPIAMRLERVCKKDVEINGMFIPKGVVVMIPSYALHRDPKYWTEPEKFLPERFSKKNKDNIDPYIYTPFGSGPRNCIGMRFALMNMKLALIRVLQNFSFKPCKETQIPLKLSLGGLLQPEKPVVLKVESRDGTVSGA
Consider `N[C@H](C(=O)O)[C@H](O)C(=O)O`, for which the AC50 is 0.0316 µM (inconclusive).

In the case of `COc1ccc2c(c1)C(=O)N(Cc1ccco1)C(=O)/C2=C\Nc1c(C)n(C)n(-c2ccccc2)c1=O`, the AC50 is 8.91 µM (inconclusive). For `CC1CC(C)CN(C/C=C/c2ccccc2[N+](=O)[O-])C1` (configuration not stated), the AC50 is 25.1 µM (inconclusive). `N#C/C(=C\c1cc([N+](=O)[O-])c(N2CCCCC2)cc1N1CCCCC1)c1nn(-c2ccccc2)c(N)c1C#N`: the AC50 is 2.24 µM (inconclusive). On to `OCCNCCCOc1cccc(Cl)c1Cl`, for which the AC50 is 31.6 µM (inconclusive). Turning to `Cc1nc(SC2CC(=O)N(c3ccc([N+](=O)[O-])cc3)C2=O)nc2c1CCCC2` (configuration not stated), the AC50 is 20 µM (inconclusive).

Turning to `C=CC[C@@H]1C=C[C@@H](O/N=C\C[C@@H]2C=C[C@H](OC(C)=O)[C@H](COC(C)=O)O2)[C@@H](CO)O1`, the AC50 is 3.98 µM (inconclusive).

Regarding `CCOC(=O)CNS(=O)(=O)c1cc(-c2nn(C)c(=O)c3ccccc23)ccc1C`, the AC50 was 39.8 µM (inconclusive). Same read-out and setting: the same measure for `CCc1nnc2sc(-c3ccc(NC(=O)c4ccco4)cc3)nn12`: 0.708 µM (inconclusive); for `O=C(CSCc1ccccc1Cl)NNC(=O)c1ccccc1`: 11.2 µM (inconclusive). For the compound `CC(=O)c1cccc(NC(=O)CSCc2ccccc2)c1`, the AC50 was 28.2 µM (inconclusive). For `Cc1nnc(C)n1/N=C/c1ccc(-c2ccccc2)cc1`, the AC50 is 22.4 µM (inconclusive).

Regarding `COc1ccc(-c2csc3c2[N+]2=CCC=C2C3[O-])cc1` (configuration not stated), the AC50 was 3.16 µM (inconclusive).

System in a further test: not listed separately
Put plainly: cytotoxicity toward NIH3T3 fibroblasts, dose response, counter-screen, cell-based, ATP luminescence, mouse fibroblasts (AID 2010).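 Also: cells exposed to compound for about 90 hours before reading.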 Format: functional. (Counterscreens check selectivity or assay interference.)
With `Cc1cccc(NC(=O)c2cccc(Cn3cc(Br)c([N+](=O)[O-])n3)c2)c1C`, the EC50 is 39 µM (active). In the case of `Cc1ccc(C)c(N2CCN(C(=O)c3ccc(Cn4c(=S)[nH]c5ccc(N6CCOCC6)cc5c4=O)cc3)CC2)c1`, the EC50 is reported as > 60 µM (not active). For `Cc1cccc(N(CC(=O)NC2CCCC2)C(=O)c2cc3cc4cccc(C)c4nc3s2)c1C`, the EC50 is on record as > 60 µM (not active). As for `Clc1ccc(OCCCCCN2CCCC2)c(Br)c1`, the EC50 is 10.9 µM (active). In the case of `CCc1ccc(OCCNC(=O)c2ccccc2SCc2ccc(F)cc2)cc1`, the EC50 is recorded as > 60 µM (not active). `O=C(Cn1cnc2cc([N+](=O)[O-])ccc2c1=O)Nc1ccccc1-c1ccccc1`: the EC50 is > 30 µM (not active). For `Cc1ccc(-c2cc(C(F)F)n3ncc(C(=O)N4CCN(c5ccccn5)CC4)c3n2)cc1`, the EC50 is > 60 µM (not active).

With `COc1ccccc1CN1CCCC(C(=O)c2ccccc2SC)C1` (configuration not stated), the EC50 is > 60 µM (not active).

`CN1CCN(/N=C/c2ccc(-c3ccc([N+](=O)[O-])cc3)o2)CC1`: the EC50 was > 60 µM (not active). For the compound `Cc1cccc(Nc2nc(-c3ccncc3)cs2)c1`, the EC50 was 6.1 µM (active).

The test system of a further test is Streptococcus. Put plainly: Group A Streptococcus viability loss, dose response, counter-screen for streptokinase expression inhibitor project, luminescence, BacTiterGlo (AID 1915).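 Also: potency for reduction of bacterial viability or growth.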 Format: functional, organism-based.
On to `O=C(Nc1nnc(C2=COCCO2)o1)c1ccc(Br)cc1`, for which the concentration giving a half-maximal response (EC50) is 5.47 µM (active). Same read-out and setting: in the case of `COc1ccccc1C(=O)NNC(=O)C(=O)Nc1ccc(C)c(Cl)c1` it was 3.87 µM (active); in that of `COc1ccc(-c2cc3ncnc(Cl)c3s2)cc1`, 26 µM (active).

System in the next test: not listed separately
Put plainly: inhibitors of intracellular T. cruzi replication, confirmation, NIH3T3 host cells, beta-gal luminescence (AID 2044).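 Also: intracellular parasites grown in NIH/3T3 mouse fibroblasts as host cells; luminescent beta-galactosidase reporter signal from transgenic T. cruzi replicating inside host cells; inhibitors lower the luminescence signal.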 Format: functional, cell-based.
With `Cc1cccc(NC(=O)c2cccc(Cn3cc(Br)c([N+](=O)[O-])n3)c2)c1C`, the EC50 is 0.834 µM (active). `Cc1ccc(C)c(N2CCN(C(=O)c3ccc(Cn4c(=S)[nH]c5ccc(N6CCOCC6)cc5c4=O)cc3)CC2)c1`: the EC50 is 0.458 µM (active). `Cc1cccc(N(CC(=O)NC2CCCC2)C(=O)c2cc3cc4cccc(C)c4nc3s2)c1C`: the EC50 was 1.6 µM (active).

For the compound `Clc1ccc(OCCCCCN2CCCC2)c(Br)c1`, the EC50 is 0.231 µM (active). Same read-out and setting: in the case of `CCc1ccc(OCCNC(=O)c2ccccc2SCc2ccc(F)cc2)cc1` it was 2.67 µM (active); in that of `O=C(Cn1cnc2cc([N+](=O)[O-])ccc2c1=O)Nc1ccccc1-c1ccccc1`, 0.629 µM (active); in that of `Cc1ccc(-c2cc(C(F)F)n3ncc(C(=O)N4CCN(c5ccccn5)CC4)c3n2)cc1`, 0.5 µM (active). Still for that read-out and setting: in the case of `COc1ccccc1CN1CCCC(C(=O)c2ccccc2SC)C1` (configuration not stated) it was 1.6 µM (active). As for `CN1CCN(/N=C/c2ccc(-c3ccc([N+](=O)[O-])cc3)o2)CC1`, the EC50 was 1.11 µM (active). The same measure, in the same setting: in the case of `Cc1cccc(Nc2nc(-c3ccncc3)cs2)c1` it was 0.154 µM (active).

For a further test, the system named is Streptococcus sp. 'group A'. The experiment in a line: growth inhibition of control SK(-) GAS strain, dose response, counter-screen for streptokinase expression inhibitor project, luminescence, kanamycin, BacTiterGlo, confirmation (AID 1900). Format: functional, organism-based.
For the compound `O=C(Nc1nnc(C2=COCCO2)o1)c1ccc(Br)cc1`, the EC50 was 1.9 µM (active). In the case of `COc1ccccc1C(=O)NNC(=O)C(=O)Nc1ccc(C)c(Cl)c1`, the EC50 is 1.73 µM (active). Take `COc1ccc(-c2cc3ncnc(Cl)c3s2)cc1`: the EC50 was 9.73 µM (active).
